What was measured:
[1] = biological target: T1, Hpβ-clamp (Helicobacter pylori, UniProt O25242); assay: SPR surface competition with HpDNA ligase, immobilised Hpβ-clamp (qualitative); assay type: binding; settings: competitive with HpDNA ligase; HBS-EP pH 7.4, 2% DMSO
T1 construct: gene dnaN; recombinant, expressed in E. coli BL21, Ni-NTA and gel filtration purified (His-tag implied); homodimer
T1 sequence (O25242 1-374): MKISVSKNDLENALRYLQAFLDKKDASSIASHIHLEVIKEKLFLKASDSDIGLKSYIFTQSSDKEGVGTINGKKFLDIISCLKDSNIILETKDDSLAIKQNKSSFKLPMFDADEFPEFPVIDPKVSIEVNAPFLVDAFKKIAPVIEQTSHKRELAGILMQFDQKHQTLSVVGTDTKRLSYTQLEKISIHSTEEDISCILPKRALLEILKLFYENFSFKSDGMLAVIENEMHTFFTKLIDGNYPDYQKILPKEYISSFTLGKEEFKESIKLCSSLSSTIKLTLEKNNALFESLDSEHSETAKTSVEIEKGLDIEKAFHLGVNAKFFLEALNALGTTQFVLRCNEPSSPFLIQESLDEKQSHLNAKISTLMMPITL

[2] = biological target: T1, Hpβ-clamp; assay: co-crystal structure ([…] Å); also SPR surface competition with HpDNA ligase; assay type: binding; settings: subsite I of protein-protein interaction site; competitive with HpDNA ligase

SMILES	SPR surface competition with HpDNA ligase, immobilised Hpβ-clamp (qualitative) [1]	co-crystal structure (1.97 Å); also SPR surface competition with HpDNA ligase [2]
O=[N+]([O-])c1ccc2cn[nH]c2c1 [C2, 6-nitroindazole]	All five shortlisted molecules showed competitive binding to β-clamp.	
C[C@H](C(=O)O)c1ccc2c(c1)[nH]c1ccc(Cl)cc12 [C3, (S)-carprofen]		5FXT (Hpβ-clamp complex with carprofen, C3)
O=[N+]([O-])c1ccc2[nH]ccc2c1 [C4, 5-nitroindole]	All five shortlisted molecules showed competitive binding to β-clamp.	
